Measured values reported in patent US20220193013A1, “Pharmaceutical Composition for Treatment or Prevention of Multiple Inflammatory Disorders” (priority 2020, published 2022).
Like-named read-outs stand apart in the source and are kept apart here.

How the values were obtained:
[1] = test system: acute lung injury plus hyperthermia, CD-1 mice; type: in vivo; conditions: for tolerability: mouse, in vivo
Method: This example provides results of a second modified acute lung injury plus hyperthermia study to evaluate the effect of denatonium acetate. The same procedure was used as in Example 7. Starting three days before the induction of lung injury, groups of six CD-1 mice each were treated prophylactically with vehicle or 92.4 mg/kg denatonium acetate (DA) (administered by twice-daily (BID) oral gavage (PO)) or with 3 mg/kg DA (administered by once-daily (QD) intraperitoneal (IP) injection). On Day 0, lung injury was induced by intratracheal instillation with 50 μL of 1 mg/mL bacterial lipopolysaccharide (LPS), and hyperthermia was induced by placing the animals in a 39° C. incubator. On Day 1 (i.e., 24 hours after induction), animals were euthanized and bronchoalveolar lavage fluid (BALF) was collected. The BALF specimens were assessed for cytokine concentrations (using a multiplex bead-based assay), and protein levels, and neutrophil counts (by fluorescence-activated cell sorting (FACS)). Additionally, lungs were collected, fixed, stained with Masson's trichrome, and assessed histologically. Three days of repeat PO dosing with 92.4 mg/kg DA (BID) or IP dosing with 3 mg/kg DA (QD) was well-tolerated in female CD-1 mice. […] This inference is consistent with the observation that deaths were seen both with vehicle and test article dosing. No other adverse clinical observations were noted during 3 days of test article administration. […] IL-13, MIP-1β, MCSF, and MIG. […] Thus, BID PO treatment with 92.4 mg/kg DA or QD IP injection with 3 mg/kg DA provided significant attenuation of the accumulation of multiple cytokines in the lungs of this mouse model of acute lung injury, along with nominal activity in counteracting neutrophil infiltration and lung damage in these animals.

[2] = test system: air pouch model of inflammation, C57BL/6 mice; assay: murine air pouch model of inflammation (LPS induction); type: in vivo, mouse
Method: This example provides the results of investigating DA to modulate immune response in a murine air pouch model of inflammation. Eight C57BL/6 mice were assigned to groups for gavage treatment (BID) of controls (distilled water), DA at a dose of 23.1 mg/kg BID (low dose DA), and DA at a dose of 96.4 mg/kg BID (high dose DA). What was measured was infiltrating cell counts with air pouch exudates, IL-6 levels in air pouch exudates by an ELISA assay (R&D Systems Cat. No. M6000B), and multiple cytokine analysis (Mouse 32Plex Kit MilliporeSigma Cat. No. MCYTMAG70PMX32BK). Statistical analysis was done by a one-way ANOVA followed by Tukey's multiple comparison post hoc test for data with normal distribution, Kruskal-Wallis test followed by Dunn's multiple comparison post hoc test for data with skewed distribution, and the ROUT method for identifying outliers.
Duarte et al., Current Protocols in Pharmacology, 5.6.1-5.6.8 Mar. 2012, describes “The subcutaneous air pouch is an in vivo model that can be used to study acute and chronic inflammation, the resolution of the inflammatory response, and the oxidative stress response. Injection of irritants into an air pouch in rats or mice induces an inflammatory response that can be quantified by the volume of exudate produced, the infiltration of cells, and the release of inflammatory mediators. The model presented in this unit has been extensively used to identify potential anti-inflammatory drugs.” It can be used to study localized inflammation without systemic effects. But in this case the drug was administered orally, by gavage BID.
Test administration was 5 ml/kg body weight BID dosing with 8 hour intervals. The air pouch was created in each test BL6 mouse by sc injection of 1.5 ml/mouse of sterile air on day 0 and 1.5 ml/mouse of sterile air on day 3. Compounds (or control distilled water) were administered BID on day −2. LPS (0.75 mg/animal in 1 ml endotoxin free PBS) was administered at hour 0 or one hour after dosing with test compounds. Plasma samples were collected at termination and exudates of the air pouches for all groups. Cell count analysis and IL-6 assays were conducted at the animal facility and plasma and exudate samples were sent out for cytokine analysis. Each group of distilled water control, 23.1 mg/kg DA and 92.4 mg/kg DA had 8 mice each.

[3] = test system: microbial populations in fecal samples; assay: microbiome study in NASH mouse model (AMLN diet), 4 weeks; type: in vivo
From the text: There were changes in the microbiome in a mice model using a high-fat diet after 4 weeks of treatment with and without administering DA orally. The high fat diet itself induced extensive changes in the microbial populations in all groups. Importantly though, there was a pronounced difference between the DA treatment group and the control group at week 4.
The effect of a small molecule oral TAS2R agonist (DA) was investigated on microbial populations in a nonalcoholic steatohepatitis (NASH) mouse model. Two groups of 4-week-old male C57BL/6 mice (20/group) were fed Amylin Liver NASH (AMLN) diet and received daily doses of ARD-101 (30 mg/mL in water) or vehicle (water) via intragastric gavage. DNA was isolated from fecal samples collected at week 0 and 4, and microbial ecology was evaluated using bTEFAP (bacterial tag-encoded FLX amplicon pyrosequencing). Operational taxonomic units were classified using BLAST against a curated NCBI database. Diversity within specific ecosystems and microbial community structures was analyzed with Qiime 2. Differences were determined by repeated measures ANOVA and post hoc pairwise comparisons using Tukey's test. Taxonomic classification data were evaluated with a dual hierarchal dendrogram.

[4] = IP 3 mg/kg QD, compared to vehicle
[5] = oral 92.4 mg/kg BID, compared to vehicle
[6] = 4-week DA treatment, genetic potential of microbiome
[7] = treatment at 4 weeks versus baseline and control
[8] = week 4, DA group versus vehicle group, AMLN diet

`CC(=O)[O-].CC[N+](CC)(CC(=O)Nc1c(C)cccc1C)Cc1ccccc1` [DA, denatonium acetate] was tested. Which “BALF neutrophil counts (by FACS assay)” value ([1]; IP 3 mg/kg QD) did it give?
The value was “nominal decreases”.

And the BALF protein concentrations ([1]; IP 3 mg/kg QD)?
The BALF protein concentrations was “nominal (but nonsignificant) changes”.

And the “severity of lung pathology (by histological scoring)” value ([1]; IP 3 mg/kg QD)?
The value was “nominal decreases in the severity”.

What about the “BALF concentration of G-CSF” value [1, 4] of the same compound?
The value was “significant decreases”.

And the “BALF concentration of IL2” value [1, 4]?
Its value is “significant decreases”.

And the “BALF concentration of IL-3” value [1, 4]?
The value was “significant decreases”.

What about the “BALF concentration of IL-4” value [1, 4] of the same compound?
Its value is “significant decreases”.

And the “BALF concentration of IL-13” value [1, 4]?
The value was “significant decreases”.

And the “BALF concentration of IP-10” value [1, 4]?
The value was “significant decreases”.

And the “BALF concentration of M-CSF” value [1, 4]?
Its value is “significant decreases”.

And the “BALF concentration of MCP-1” value [1, 4]?
The value was “significant decreases”.

What about the “BALF concentration of MIG” value [1, 4] of the same compound?
Its value is “significant decreases”.

What about the “BALF concentration of eotaxin” value [1, 4] of the same compound?
Its value is “significant decreases”.

And the tolerability ([1]; ip, 3 mg/kg)?
The tolerability was “well-tolerated”.

And the tolerability ([1]; po, 92.4 mg/kg)?
Its tolerability is “well-tolerated”.

What about the “BALF neutrophil counts (by FACS assay)” value ([1]; oral 92.4 mg/kg BID) of the same compound?
The value was “nominal decreases”.

And the BALF protein concentrations ([1]; oral 92.4 mg/kg BID)?
Its BALF protein concentrations is “nominal (but nonsignificant) changes”.

What about the “severity of lung pathology (by histological scoring)” value ([1]; oral 92.4 mg/kg BID) of the same compound?
Its value is “nominal decreases in the severity”.

What about the “BALF concentration of IL-2” value [1, 5] of the same compound?
The value was “significant decreases”.

And the “BALF concentration of IL-3” value [1, 5]?
The value was “significant decreases”.

And the “BALF concentration of IL-10” value [1, 5]?
Its value is “significant decreases”.

And the “BALF concentration of IL-13” value [1, 5]?
The value was “significant decreases”.

What about the “BALF concentration of MCSF” value [1, 5] of the same compound?
The value was “significant decreases”.

What about the “BALF concentration of MIG” value [1, 5] of the same compound?
The value was “significant decreases”.

What about the “BALF concentration of MIP-1β” value [1, 5] of the same compound?
Its value is “significant decreases”.

What about the IL-1β level ([2]; higher dose of DA) of the same compound?
Its IL-1β level is “significant reduction”.

And the IL-10 level ([2]; higher dose of DA)?
Its IL-10 level is “significant reduction”.

What about the IL-17 level ([2]; higher dose of DA) of the same compound?
The IL-17 level was “significant reduction”.

And the TNF-1α level ([2]; higher dose of DA)?
Its TNF-1α level is “significant reduction”.

And the “IL-6 levels in air pouch exudates” value ([2]; pre-treated with DA at 96.4 mg/kg BID gavage, ELISA, vs vehicle and lower dose)?
The value was “significantly lower”.

And the “infiltrating cell count in air pouch exudates” value ([2]; pre-treated with DA at 96.4 mg/kg BID gavage, vs vehicle and lower dose)?
The value was “significantly lower”.

What about the “arginine and ornithine metabolism” value [3, 6] of the same compound?
The value was “significantly decreased signaling”.

What about the “pathways for biosynthesis of unsaturated fatty acids” value [3, 6] of the same compound?
Its value is “significant enrichment”.

And the “pathways for glycolysis and gluconeogenesis” value [3, 6]?
The value was “significant enrichment”.

And the “pathways for lysine degradation” value [3, 6]?
Its value is “significant enrichment”.

And the “pathways for metabolism of arachidonic acid” value [3, 6]?
The value was “significant enrichment”.

What about the “pathways for metabolism of cofactors and vitamins” value [3, 6] of the same compound?
Its value is “significant enrichment”.

What about the phosphatidylinositol signaling [3, 6] of the same compound?
The phosphatidylinositol signaling was “significant enrichment”.

And the SCFAs in feces ([3]; AMLN diet, DA treatment)?
The SCFAs in feces was “mitigated the diet-induced decrease”.

What about the “diversity within ecosystems and microbial communities” value ([3]; DA versus vehicle group at week 4, p<0.05) of the same compound?
The value was “significantly less diversity”.

What about the “genus: Lachnoclostridium, Barnesiella, Clostridium, Oscillospira, Dorea, candidatus soleaferrea, Dehalobacterium, Oscillibacter, Flavonifractor” value [3, 7] of the same compound?
The value was “Significantly Decreased”.

And the “genus: Parabacteroides, Escherichia, Erysipelatoclostridium, Peptoclostridium, Sutterella, Shigella, Brenneria” value [3, 7]?
Its value is “Significantly Increased”.

What about the “Cyanobacteria (phylum level)” value [3, 8] of the same compound?
Its value is “significant increases”.

What about the “Deferribacteres (phylum level)” value [3, 8] of the same compound?
Its value is “significant decreases”.

And the “Firmicutes (phylum level)” value [3, 8]?
The value was “significant decreases”.

What about the “Proteobacteria (phylum level)” value [3, 8] of the same compound?
Its value is “significant increases”.

What about the “Spirochetes (phylum level)” value [3, 8] of the same compound?
Its value is “significant decreases”.

And the “Verrucomicrobia (phylum level)” value [3, 8]?
Its value is “significant increases”.

What about the “Bacteroidetes (phylum level)” value ([3]; week 4, not marked significant) of the same compound?
The value was “decreased”.
